{"source": "patent US20210308089A1", "about": "“METHODS OF TREATING AND/OR PREVENTING VIRAL INFECTIONS AND/OR DISEASES CAUSED BY VIRUSES IN A SUBJECT IN NEED THEREOF” (priority 2020, published 2021)", "tested_on": "patients of the REDUCE-IT and earlier EPA placebo-controlled trials", "assay": "Example 3: adverse events by risk ratio, icosapent ethyl vs placebo (candidate categories; infectious disease terms of interest)", "conditions": "ISS"}
{"smiles": "CC/C=C\\C/C=C\\C/C=C\\C/C=C\\C/C=C\\CCCC(=O)OCC", "note": "[icosapent ethyl, eicosapentaenoic acid ethyl ester]", "values": [{"measurement": "AR: Cholesterol Increased (AE table)", "value": 0.9, "unit": "%"}, {"measurement": "AR: Chorea, Related (AE table)", "value": 0.7, "unit": "%"}, {"measurement": "AR: Constipation, Related (AE table)", "value": 0.5, "unit": "%"}, {"measurement": "AR: Diarrhea, Any Severity (AE table)", "value": 9.8, "unit": "%"}, {"measurement": "AR: Diarrhea, Mild Severity (AE table)", "value": 7.4, "unit": "%"}, {"measurement": "AR: Diarrhea, Related (AE table)", "value": 8.4, "unit": "%"}, {"measurement": "AR: Flatulence, Any Severity (AE table)", "value": 1.1, "unit": "%"}, {"measurement": "AR: Flatulence, Mild Severity (AE table)", "value": 0.9, "unit": "%"}, {"measurement": "AR: Flatulence, Related (AE table)", "value": 1.1, "unit": "%"}, {"measurement": "AR: Frequent Bowel Movements, Any Severity (AE table)", "value": 0.2, "unit": "%"}, {"measurement": "AR: Frequent Bowel Movements, Mild Severity (AE table)", "value": 0.2, "unit": "%"}, {"measurement": "AR: Frequent Bowel Movements, Related (AE table)", "value": 0.2, "unit": "%"}, {"measurement": "AR: Hot Flush (AE table)", "value": 0.6, "unit": "%"}, {"measurement": "AR: Huntington's Chorea, Any Severity (AE table)", "value": 1.0, "unit": "%"}, {"measurement": "AR: Huntington's Chorea, Mild Severity (AE table)", "value": 0.8, "unit": "%"}, {"measurement": "AR: Menorrhagia (AE table)", "value": 0.4, "unit": "%"}, {"measurement": "AR: Muscle spasms, Related (AE table)", "value": 0.2, "unit": "%"}, {"measurement": "AR: Nasopharyngitis, Any Severity (AE table)", "value": 4.3, "unit": "%"}, {"measurement": "AR: Nasopharyngitis, Mild Severity (AE table)", "value": 3.3, "unit": "%"}, {"measurement": "AR: Urine Protein Present (AE table)", "value": 0.1, "unit": "%"}, {"measurement": "AR: Weight loss, Related (AE table)", "value": 0.3, "unit": "%"}, {"measurement": "ARR: Cholesterol Increased (AE table)", "value": "−1.4", "unit": "%"}, {"measurement": "ARR: Chorea, Related (AE table)", "value": "−0.5", "unit": "%"}, {"measurement": "ARR: Constipation, Related (AE table)", "value": "−0.8", "unit": "%"}, {"measurement": "ARR: Diarrhea, Any Severity (AE table)", "value": "−1.6", "unit": "%"}, {"measurement": "ARR: Diarrhea, Mild Severity (AE table)", "value": "−2.2", "unit": "%"}, {"measurement": "ARR: Diarrhea, Related (AE table)", "value": "−1.5", "unit": "%"}, {"measurement": "ARR: Flatulence, Any Severity (AE table)", "value": "−0.8", "unit": "%"}, {"measurement": "ARR: Flatulence, Mild Severity (AE table)", "value": "−0.8", "unit": "%"}, {"measurement": "ARR: Flatulence, Related (AE table)", "value": "−0.8", "unit": "%"}, {"measurement": "ARR: Frequent Bowel Movements, Any Severity (AE table)", "value": "−0.6", "unit": "%"}, {"measurement": "ARR: Frequent Bowel Movements, Mild Severity (AE table)", "value": "−0.4", "unit": "%"}, {"measurement": "ARR: Frequent Bowel Movements, Related (AE table)", "value": "−0.6", "unit": "%"}, {"measurement": "ARR: Hot Flush (AE table)", "value": "−0.3", "unit": "%"}, {"measurement": "ARR: Huntington's Chorea, Any Severity (AE table)", "value": "−1.3", "unit": "%"}, {"measurement": "ARR: Huntington's Chorea, Mild Severity (AE table)", "value": "−0.9", "unit": "%"}, {"measurement": "ARR: Menorrhagia (AE table)", "value": "−0.6", "unit": "%"}, {"measurement": "ARR: Muscle spasms, Related (AE table)", "value": "−0.0", "unit": "%"}, {"measurement": "ARR: Nasopharyngitis, Any Severity (AE table)", "value": "−2.3", "unit": "%"}, {"measurement": "ARR: Nasopharyngitis, Mild Severity (AE table)", "value": "−2.3", "unit": "%"}, {"measurement": "ARR: Urine Protein Present (AE table)", "value": "−0.2", "unit": "%"}, {"measurement": "ARR: Weight loss, Related (AE table)", "value": "−0.4", "unit": "%"}, {"measurement": "NNT: Cholesterol Increased (AE table)", "value": 69}, {"measurement": "NNT: Chorea, Related (AE table)", "value": 187}, {"measurement": "NNT: Constipation, Related (AE table)", "value": 122}, {"measurement": "NNT: Diarrhea, Any Severity (AE table)", "value": 61}, {"measurement": "NNT: Diarrhea, Mild Severity (AE table)", "value": 45}, {"measurement": "NNT: Diarrhea, Related (AE table)", "value": 65}, {"measurement": "NNT: Flatulence, Any Severity (AE table)", "value": 121}, {"measurement": "NNT: Flatulence, Mild Severity (AE table)", "value": 129}, {"measurement": "NNT: Flatulence, Related (AE table)", "value": 121}, {"measurement": "NNT: Frequent Bowel Movements, Any Severity (AE table)", "value": 173}, {"measurement": "NNT: Frequent Bowel Movements, Mild Severity (AE table)", "value": 259}, {"measurement": "NNT: Frequent Bowel Movements, Related (AE table)", "value": 173}, {"measurement": "NNT: Hot Flush (AE table)", "value": 292}, {"measurement": "NNT: Huntington's Chorea, Any Severity (AE table)", "value": 77}, {"measurement": "NNT: Huntington's Chorea, Mild Severity (AE table)", "value": 109}, {"measurement": "NNT: Menorrhagia (AE table)", "value": 159}, {"measurement": "NNT: Muscle spasms, Related (AE table)", "value": 2007}, {"measurement": "NNT: Nasopharyngitis, Any Severity (AE table)", "value": 43}, {"measurement": "NNT: Nasopharyngitis, Mild Severity (AE table)", "value": 43}, {"measurement": "NNT: Urine Protein Present (AE table)", "value": 519}, {"measurement": "NNT: Weight loss, Related (AE table)", "value": 230}, {"measurement": "Risk Ratio (95% CI): Cholesterol Increased (AE table)", "value": "0.165 (0.036 to 0.759) 5"}, {"measurement": "Risk Ratio (95% CI): Chorea, Related (AE table)", "value": "0.445(0.107 to 1.853) 3"}, {"measurement": "Risk Ratio (95% CI): Constipation, Related (AE table)", "value": "0.148 (0.017 to 1.265) 5"}, {"measurement": "Risk Ratio (95% CI): Diarrhea, Any Severity (AE table)", "value": "0.847 (0.603 to 1.191) 1"}, {"measurement": "Risk Ratio (95% CI): Diarrhea, Mild Severity (AE table)", "value": "0.741 (0.498 to 1.103) 2"}, {"measurement": "Risk Ratio (95% CI): Diarrhea, Related (AE table)", "value": "0.834 (0.575 to 1.210) 1"}, {"measurement": "Risk Ratio (95% CI): Flatulence, Any Severity (AE table)", "value": "0.463 (0.152 to 1.408) 3"}, {"measurement": "Risk Ratio (95% CI): Flatulence, Mild Severity (AE table)", "value": "0.424 (0.125 to 1.440) 3"}, {"measurement": "Risk Ratio (95% CI): Flatulence, Related (AE table)", "value": "0.463 (0.152 to 1.408) 3"}, {"measurement": "Risk Ratio (95% CI): Frequent Bowel Movements, Any Severity (AE table)", "value": "[0 drug vs 3 PBO]"}, {"measurement": "Risk Ratio (95% CI): Frequent Bowel Movements, Mild Severity (AE table)", "value": "[0 drug vs 2 PBO]"}, {"measurement": "Risk Ratio (95% CI): Frequent Bowel Movements, Related (AE table)", "value": "[0 drug vs 3 PBO]"}, {"measurement": "Risk Ratio (95% CI): Hot Flush (AE table)", "value": "0.556 (0.125 to 2.474) 3"}, {"measurement": "Risk Ratio (95% CI): Huntington's Chorea, Any Severity (AE table)", "value": "0.247 (0.067 to 0.908) 4"}, {"measurement": "Risk Ratio (95% CI): Huntington's Chorea, Mild Severity (AE table)", "value": "0.318 (0.083 to 1.223) 4"}, {"measurement": "Risk Ratio (95% CI): Menorrhagia (AE table)", "value": "0.185 (0.021 to 1.653) 5"}, {"measurement": "Risk Ratio (95% CI): Muscle spasms, Related (AE table)", "value": "0.741 (0.046 to 11.826) 2"}, {"measurement": "Risk Ratio (95% CI): Nasopharyngitis, Any Severity (AE table)", "value": "0.588 (0.344 to 1.004) 3"}, {"measurement": "Risk Ratio (95% CI): Nasopharyngitis, Mild Severity (AE table)", "value": "0.494 (0.265 to 0.921) 3"}, {"measurement": "Risk Ratio (95% CI): Urine Protein Present (AE table)", "value": "[0 drug vs 1 PBO]"}, {"measurement": "Risk Ratio (95% CI): Weight loss, Related (AE table)", "value": "0.247 (0.026 to 2.369) 4"}, {"measurement": "ARR", "setting": "Chorea, Related", "value": "−0.5", "unit": "%"}, {"measurement": "NNT", "setting": "Chorea, Related", "value": 187}, {"measurement": "Risk Ratio (95% CI)", "setting": "Chorea, Related", "value": "0.445 (0.107 to 1.853) 3"}, {"measurement": "ARR", "setting": "Constipation, Related", "value": "−0.8", "unit": "%"}, {"measurement": "NNT", "setting": "Constipation, Related", "value": 122}, {"measurement": "Risk Ratio (95% CI)", "setting": "Constipation, Related", "value": "0.148 (0.017 to 1.265) 5"}, {"measurement": "ARR", "setting": "Cough", "value": 0.9, "unit": "%"}, {"measurement": "NNT", "setting": "Cough", "value": "−112"}, {"measurement": "Risk Ratio (95% CI)", "setting": "Cough", "value": "1.928 (0.692 to 5.373) −3"}, {"measurement": "ARR", "setting": "Diarrhea, Any Severity", "value": "−1.6", "unit": "%"}, {"measurement": "NNT", "setting": "Diarrhea, Any Severity", "value": 61}, {"measurement": "Risk Ratio (95% CI)", "setting": "Diarrhea, Any Severity", "value": "0.847 (0.603 to 1.191) 1"}, {"measurement": "ARR", "setting": "Diarrhea, Mild Severity", "value": "−2.2", "unit": "%"}, {"measurement": "NNT", "setting": "Diarrhea, Mild Severity", "value": 45}, {"measurement": "Risk Ratio (95% CI)", "setting": "Diarrhea, Mild Severity", "value": "0.741 (0.498 to 1.103) 2"}, {"measurement": "ARR", "setting": "Diarrhea, Related", "value": "−1.5", "unit": "%"}, {"measurement": "NNT", "setting": "Diarrhea, Related", "value": 65}, {"measurement": "Risk Ratio (95% CI)", "setting": "Diarrhea, Related", "value": "0.834 (0.575 to 1.210) 1"}, {"measurement": "ARR", "setting": "Flatulence, Any Severity", "value": "−0.8", "unit": "%"}, {"measurement": "NNT", "setting": "Flatulence, Any Severity", "value": 121}, {"measurement": "Risk Ratio (95% CI)", "setting": "Flatulence, Any Severity", "value": "0.463 (0.152 to 1.408) 3"}, {"measurement": "ARR", "setting": "Flatulence, Mild Severity", "value": "−0.8", "unit": "%"}]}
